From patent US10053497B2, “Therapeutic epitopes and uses thereof” (OXFORD UNIVERSITY INNOVATION LIMITED, priority 2002, dated 2018)

Key:
tTG = biological target: T1, tTG (UniProt P08587); test: Deamidation of A-gliadin 56-75 by tTG (HPLC, amino acid sequencing); assay type: biochemical, guinea pig; conditions: tTG 50 μg/ml, 37° C., 2 hours
T1 construct: purchased Sigma T-5398
T1 sequence (P08587 1-690): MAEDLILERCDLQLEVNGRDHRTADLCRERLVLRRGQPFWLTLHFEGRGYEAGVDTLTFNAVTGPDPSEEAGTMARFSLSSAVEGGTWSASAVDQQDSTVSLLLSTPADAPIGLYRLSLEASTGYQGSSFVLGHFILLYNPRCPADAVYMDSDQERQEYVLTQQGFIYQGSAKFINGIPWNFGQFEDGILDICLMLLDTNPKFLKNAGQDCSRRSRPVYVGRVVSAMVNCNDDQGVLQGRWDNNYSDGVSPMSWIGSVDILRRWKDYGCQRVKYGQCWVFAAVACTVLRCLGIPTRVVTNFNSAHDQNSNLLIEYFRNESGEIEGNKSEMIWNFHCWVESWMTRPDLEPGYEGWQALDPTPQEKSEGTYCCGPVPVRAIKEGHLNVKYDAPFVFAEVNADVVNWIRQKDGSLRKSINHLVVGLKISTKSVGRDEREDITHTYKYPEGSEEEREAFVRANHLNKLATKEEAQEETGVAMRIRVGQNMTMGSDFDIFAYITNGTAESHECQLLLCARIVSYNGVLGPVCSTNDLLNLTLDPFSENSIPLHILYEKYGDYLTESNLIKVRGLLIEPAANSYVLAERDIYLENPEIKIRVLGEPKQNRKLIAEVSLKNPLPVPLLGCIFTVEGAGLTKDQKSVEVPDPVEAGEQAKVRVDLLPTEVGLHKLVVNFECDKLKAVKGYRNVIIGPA
Experimental: A-gliadin 56-75 […] (SEQ ID NO:5) (0.1 μM) was incubated with tTG (50 μg/ml) at 37° C. for 2 hours. A single product was identified and purified by reverse phase HPLC. Amino acid analysis allowed % deamidation (Q→E) of each Gln residue in A-gliadin 56-75 (SEQ ID NO:5) attributable to tTG to be calculated (vertical axis).
Coeliac disease subjects following a gluten free diet, consumed 4 slices of gluten-containing bread (50 g/slice, Sainsbury's “standard white sandwich bread”) daily for 3 or 10 days. EMA was assessed the week before and up to two months after commencing the bread challenge. […] Peptides were assessed in duplicate wells, and Mycobacterium tuberculosis purified protein derivative (PPD RT49) (Serum Institute; Copenhagen, Denmark) (20 μg/ml) was included as a positive control in all assays. […] Digestion of gliadin was verified by SDS-PAGE and protein concentration assessed. α-Chymotrypsin-digested gliadin (640 μg/ml) and synthetic gliadin peptides (15-mers: 160 μg/ml, other peptides: 0.1 mM) were individually treated with tTG (Sigma; T-5398) ([…]) in PBS+CaCl2 1 mM for 2 h at 37° C. […] Deamidation of glutamyl residues was defined as the amount (pmol) of glutamate recovered expressed as a percent of the combined amount of glutamine and glutamate recovered in cycles 2, 4, 8, 10, 15 and 17 of the amino acid sequencing. […]

[1] = tested on: PBMC from coeliac disease subjects; test: IFNγ ELISPOT with PBMC of coeliac disease subjects after bread/gluten challenge (agonist bioactivity of peptides); assay type: cell-based, human; conditions: for Dose response: n=8
[2] = tested on: PBMC of HLA-DQ2+ coeliac subjects; test: IFNγ ELISpot, comprehensive gliadin epitope mapping in HLA-DQ2+ coeliac subjects after gluten challenge; assay type: cell-based, human; conditions: after gluten challenge
How it was run: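 PBMC (2-8×10^5/well) from HLA-DQ2+ coeliac subjects on gluten-free diet were taken before and on day 6/7 after 3-day bread challenge. They were incubated overnight with 20mer peptides or pools (20 μg/ml each), ± tTG deamidation (tTG 64 μg/ml in wells), in RPMI/10% human AB serum. Net sfc/million minus blank; single-peptide responses as % of P04722 77-93 QE85.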

[3] = tested on: PBMC from coeliac disease subjects; test: HLA class II restriction: IFNγ ELISPOT after preincubation of PBMC with anti-HLA-DR, -DQ, -DP antibodies; assay type: cell-based, human; conditions: PBMC day 6, long-term GFD; tTG-gliadin 100, peptide 50, PPD 5 mcg/ml
[4] = tested on: PBMC of newly diagnosed coeliac subjects; test: IFNγ ELISpot in newly diagnosed coeliac disease: duration of gluten free diet before gluten challenge; assay type: cell-based, human
[5] = tested on: PBMC from coeliac subjects; test: Immunomagnetic bead depletion (CD4, CD8, β7, αE) of PBMC followed by IFNγ ELISpot; assay type: cell-based, human; conditions: 0.1 μM

LQLQPFPQPQLPYPQPQSFP [A-gliadin 56-75]
Glutamine residue deamidated by tTG (tTG): Q65 (SEQ ID NO:5) was preferentially deamidated by tTG

QLQPFPQPELPYPQPQS [A-gliadin 57-73 QE65]
Dose response ([1]; 0.025 mcg/ml): 1 % G01E maximal response | Dose response ([1]; 0.05 mcg/ml): 8 % G01E maximal response | Dose response ([1]; 0.1 mcg/ml): 10 % G01E maximal response | Dose response ([1]; 0.25 mcg/ml): 22 % G01E maximal response | Dose response ([1]; 0.5 mcg/ml): 38 % G01E maximal response | Dose response ([1]; 1 mcg/ml): 43 % G01E maximal response | Dose response ([1]; 2.5 mcg/ml): 52 % G01E maximal response | Dose response ([1]; 5 mcg/ml): 70 % G01E maximal response | Dose response ([1]; 10 mcg/ml): 81 % G01E maximal response | ELISpot response as % A-gliadin 57-73 QE65, E-substituted ([1]; 25 mcg/ml, glutamate-substituted peptide, 4 subjects): 100% | Dose response ([1]; 25 mcg/ml): 95 % G01E maximal response | ELISpot response as % A-gliadin 57-73 QE65, Wild type ([1]; 25 mcg/ml, unmodified wild type peptide, 4 subjects, blank 5 (1)%): 18 (7) % | ELISpot response as % A-gliadin 57-73 QE65, Wildtype + tTG ([1]; 25 mcg/ml, wild type treated with tTG, 4 subjects): 87 (7) % | Bioactivity % of unmodified A-gliadin 57-73 QE65 (G) ([1]; 50 mcg/ml, PBMC from 8 subjects, blank 7.1%): (G) (mean 100%, 95% CI 97-104) and blank (no peptide, bl) (mean 7.1%, | Dose response ([1]; 50 mcg/ml): 90 % G01E maximal response | Dose response ([1]; 100 mcg/ml): 85 % G01E maximal response | Mean IFNγ ELISPOT response relative to the immunodominant epitope (Glu65) ([1]; A-gliadin 57-73 with the named amino acid at position 65, 50 μg/ml, 3 subjects, day 6): 100% | Elisopt response TG ([1]; peptide treated with transglutaminase, 3 subjects, value (range), A-gliadin 57-73 E65 = 100): 100(100) | γIFN ELISpot response after gluten challenge ([1]; relative to the dominant epitope = 100%): 100% | Share of peripheral blood T cells secreting IFN-γ in response to gliadin that recognise the epitope [2]: at least 40% | ELISpot response after preincubation with anti-HLA-DQ antibody (DQ-) [3]: 22 % inhibition | ELISpot response after preincubation with anti-HLA-DR antibody (DR-) [3]: 90 % inhibition | IFNγ ELISpot response, Day 0, 1 week gluten free diet ([4]; GFD: 1 week): 1 IFNγ specific spots/million PP | IFNγ ELISpot response, Day 6 of gluten challenge, 1 week gluten free diet ([4]; GFD: 1 week): 4 IFNγ specific spots/million PP | IFNγ ELISpot response, Day 0, 2 weeks gluten free diet ([4]; GFD: 2 weeks): 2 IFNγ specific spots/million PP | IFNγ ELISpot response, Day 6 of gluten challenge, 2 weeks gluten free diet ([4]; GFD: 2 weeks): 28 IFNγ specific spots/million PP | IFNγ ELISpot response, Day 0, 8 weeks gluten free diet ([4]; GFD: 8 weeks): 1 IFNγ specific spots/million PP | IFNγ ELISpot response, Day 6 of gluten challenge, 8 weeks gluten free diet ([4]; GFD: 8 weeks): 48 IFNγ specific spots/million PP | IFNγ ELISpot response, Day 0, no gluten free diet ([4]; GFD: none): 5 IFNγ specific spots/million PP | IFNγ ELISpot response, Day 6 of gluten challenge, no gluten free diet ([4]; GFD: none): 0 IFNγ specific spots/million PP

LQLQPFPQPELPYPQPQSFP [tTG treated A-gliadin 56-75]
IFN-g ELISPOT response of CD8 depleted PBMC, Subject 4 [5]: 29 spot forming cells per million CD8 depleted PBMC | IFN-g ELISPOT response of CD8 depleted PBMC, Subject 6 [5]: 535 spot forming cells per million CD8 depleted PBMC
